ChEMBL document CHEMBL6177995, “In Silico Discovery of Novel Potent Trace Amine-Associated Receptor TAAR1 Agonists as Promising Drug Candidates for the Treatment of Schizophrenia” (J Med Chem, 2025)

Columns and labels:
[1] = target: T1, Trace amine-associated receptor 1 (Homo sapiens, UniProt Q96RJ0); assay: Agonist activity at TAAR1 (unknown origin) transfected in HEK293 cells co-transfected with Galphaq-Nluc, Gbeta1/3 and Ggamma1/2/9-mVenus assessed as Galphaq-Gbeta/gamma dissociation by BRET assay; assay type: functional, cell-based
T1 sequence (Q96RJ0 whole entry): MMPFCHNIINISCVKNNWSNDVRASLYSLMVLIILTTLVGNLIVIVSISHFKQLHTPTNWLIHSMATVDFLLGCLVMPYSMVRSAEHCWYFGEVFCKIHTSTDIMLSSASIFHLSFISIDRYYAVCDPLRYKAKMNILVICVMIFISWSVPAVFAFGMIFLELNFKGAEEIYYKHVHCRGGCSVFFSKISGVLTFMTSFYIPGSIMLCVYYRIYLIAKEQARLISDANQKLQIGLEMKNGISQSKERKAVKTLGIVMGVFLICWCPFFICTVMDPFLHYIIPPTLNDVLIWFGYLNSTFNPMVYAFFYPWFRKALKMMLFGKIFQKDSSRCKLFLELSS

[2] = target: T1, Trace amine-associated receptor 1; assay: Agonist activity at TAAR1 (unknown origin) transfected in HEK293 cells co-transfected with GalphaS-Nluc, Gbeta1/3 and Ggamma1/2/9-mVenus assessed as GalphaS-Gbeta/gamma dissociation by BRET assay; assay type: functional, cell-based
[3] = Toxicity in male C57BL/6J mouse assessed as effect on locomotion at 1 to 10 mg/kg, po administered for 30 mins and measured after 10 mins by open field test; assay type: organism-based; details: in vivo, 40 min, dose 1-10 mg/kg
[4] = Cmax in Sprague-Dawley rat at 2 mg/kg, iv measured after 8 hrs by LC-MS/MS analysis; assay type: ADME, organism-based; details: in vivo
[5] = Acute toxicity in Kunming mouse assessed as effect on spleen co-efficient at 1000 mg/kg, po administered as single dose and measured after 7 days; assay type: organism-based; details: in vivo, 168 h, time 7 day
[6] = Metabolic stability in human liver microsomes assessed as half-life preincubated for 60 mins followed by NADPH addition and measured after 60 mins by LC-MS/MS analysis; assay type: ADME, Microsome; details: time 120 min
[7] = Subacute toxicity in Kunming mouse assessed as pathological changes in spleen at 50 mg/kg, po administered every two days for 14 days by H and E staining based analysis; assay type: organism-based; details: in vivo, 336 h, time 14 day
Mus musculus [8] = assay: Antipsychotic activity in MK-801 induced male C57BL/6J mouse model assessed as locomotion at 10 mg/kg, po preadministered for 30 mins followed by MK801 administration for 30 mins and measured after 10 mins by open field test (reference value: 8631.5 cm); assay type: functional; details: time 70 min, 1.167 h
[9] = AUC (0 to infinity) in Sprague-Dawley rat at 10 mg/kg, po measured after 8 hrs by LC-MS/MS analysis; assay type: ADME, organism-based; details: in vivo
[10] = Subacute toxicity in Kunming mouse assessed as effect on heart coefficient at 50 mg/kg, po administered every two days for 14 days; assay type: organism-based; details: in vivo, 336 h, time 14 day
[11] = Subacute toxicity in Kunming mouse assessed as animal death at 50 mg/kg, po administered every two days for 14 days; assay type: organism-based; details: in vivo, 336 h, time 14 day
[12] = target: T2, Trace amine-associated receptor 1 (Homo sapiens) (UniProt Q96RJ0); assay: Potency index, ratio of SEP-363856 EC50 to test compound EC50 for agonist activity at TAAR1 (unknown origin) transfected in HEK293 cells co-transfected with GalphaS-Nluc, Gbeta1/3 and Ggamma1/2/9-mVenus assessed as GalphaS-Gbeta/gamma dissociation by BRET assay; assay type: functional, cell-based; details: filed as agonist
T2 sequence (whole entry): T1 sequence (Q96RJ0 whole entry)

[13] = Subacute toxicity in Kunming mouse assessed as effect on lung coefficient at 50 mg/kg, po administered every two days for 14 days; assay type: organism-based; details: in vivo, 336 h, time 14 day
[14] = Subacute toxicity in Kunming mouse assessed as abnormalities at 50 mg/kg, po administered every two days for 14 days; assay type: organism-based; details: in vivo, 336 h, time 14 day
[15] = Tmax in Sprague-Dawley rat at 10 mg/kg, po measured after 8 hrs by LC-MS/MS analysis; assay type: ADME, organism-based; details: in vivo
[16] = Subacute toxicity in Kunming mouse assessed as effect on spleen coefficient at 50 mg/kg, po administered every two days for 14 days; assay type: organism-based; details: in vivo, 336 h, time 14 day
[17] = Cmax in Sprague-Dawley rat at 10 mg/kg, po measured after 8 hrs by LC-MS/MS analysis; assay type: ADME, organism-based; details: in vivo
[18] = Acute toxicity in Kunming mouse assessed as effect on heart co-efficient at 1000 mg/kg, po administered as single dose and measured after 7 days; assay type: organism-based; details: in vivo, 168 h, time 7 day
[19] = Acute toxicity in Kunming mouse assessed as effect on body weight at 1000 mg/kg, po administered as single dose and measured after 7 days; assay type: organism-based; details: in vivo, 168 h, time 7 day
[20] = Acute toxicity in Kunming mouse assessed as effect on kidney co-efficient at 1000 mg/kg, po administered as single dose and measured after 7 days; assay type: organism-based; details: in vivo, 168 h, time 7 day
[21] = Subacute toxicity in Kunming mouse assessed as effect on body weight at 50 mg/kg, po administered every two days for 14 days; assay type: organism-based; details: in vivo, 336 h, time 14 day
[22] = Subacute toxicity in Kunming mouse assessed as effect on liver coefficient at 50 mg/kg, po administered every two days for 14 days; assay type: organism-based; details: in vivo, 336 h, time 14 day
[23] = AUC (0 to infinity) in Sprague-Dawley rat at 2 mg/kg, iv measured after 8 hrs by LC-MS/MS analysis; assay type: ADME, organism-based; details: in vivo
[24] = Subacute toxicity in Kunming mouse assessed as pathological changes in liver at 50 mg/kg, po administered every two days for 14 days by H and E staining based analysis; assay type: organism-based; details: in vivo, 336 h, time 14 day
[25] = Subacute toxicity in Kunming mouse assessed as effect on kidney coefficient at 50 mg/kg, po administered every two days for 14 days; assay type: organism-based; details: in vivo, 336 h, time 14 day
[26] = Acute toxicity in Kunming mouse assessed as effect on lung co-efficient at 1000 mg/kg, po administered as single dose and measured after 7 days; assay type: organism-based; details: in vivo, 168 h, time 7 day
[27] = Tmax in Sprague-Dawley rat at 2 mg/kg, iv measured after 8 hrs by LC-MS/MS analysis; assay type: ADME, organism-based; details: in vivo
[28] = Metabolic stability in human liver microsomes assessed as intrinsic clearance preincubated for 60 mins followed by NADPH addition and measured after 60 mins by LC-MS/MS analysis; assay type: ADME, Microsome; details: time 120 min, read-out: CLH
[29] = AUC (0 to t) in Sprague-Dawley rat at 10 mg/kg, po measured after 8 hrs by LC-MS/MS analysis; assay type: ADME, organism-based; details: in vivo
[30] = Clearance in Sprague-Dawley rat at 2 mg/kg, iv measured after 8 hrs by LC-MS/MS analysis; assay type: ADME, organism-based; details: in vivo
[31] = Acute toxicity in Kunming mouse assessed as animal death at 1000 mg/kg, po administered as single dose and measured after 7 days; assay type: organism-based; details: in vivo, 168 h, time 7 day
[32] = Aqueous solubility of compound at pH 7.0; assay type: physicochemical; details: aqueous solution
[33] = Toxicity in male C57BL/6J mouse assessed as catalepsy performance at 30 mg/kg, ip measured after 30 to 60 mins by bar test; assay type: organism-based; details: in vivo, time 30-60 min
[34] = Acute toxicity in Kunming mouse assessed as abnormalities at 1000 mg/kg, po administered as single dose and measured after 7 days; assay type: organism-based; details: in vivo, 168 h, time 7 day
Mus musculus [35] = assay: Antipsychotic activity in MK-801 induced male C57BL/6J mouse model assessed as improvement in recognition deficit performance by measuring discrimination index at 3 mg/kg, po pre-administered with MK-801 as twice daily days for 7 days followed by 1 week of washout period and measured after 1 hrs of compound administration by novel object recognition test (reference value: 0.37); assay type: functional
[36] = Half-life in Sprague-Dawley rat at 2 mg/kg, iv measured after 8 hrs by LC-MS/MS analysis; assay type: ADME, organism-based; details: in vivo
[37] = Subacute toxicity in Kunming mouse assessed as pathological changes in kidney at 50 mg/kg, po administered every two days for 14 days by H and E staining based analysis; assay type: organism-based; details: in vivo, 336 h, time 14 day
[38] = Half-life in Sprague-Dawley rat at 10 mg/kg, po measured after 8 hrs by LC-MS/MS analysis; assay type: ADME, organism-based; details: in vivo
[39] = Subacute toxicity in Kunming mouse assessed as pathological changes in heart at 50 mg/kg, po administered every two days for 14 days by H and E staining based analysis; assay type: organism-based; details: in vivo, 336 h, time 14 day
Mus musculus [40] = assay: Antipsychotic activity in MK-801 induced male C57BL/6J mouse model assessed as reduction in hyperlocomotion preadministered orally for 30 mins followed by MK801 administration for 30 mins and measured after 10 mins by open field test; assay type: functional, organism-based; details: dose 1-10 mg/kg, route po, time 70.0 min
[41] = Subacute toxicity in Kunming mouse assessed as pathological changes in lung at 50 mg/kg, po administered every two days for 14 days by H and E staining based analysis; assay type: organism-based; details: in vivo, 336 h, time 14 day
[42] = Acute toxicity in Kunming mouse assessed as effect on liver co-efficient at 1000 mg/kg, po administered as single dose and measured after 7 days; assay type: organism-based; details: in vivo, 168 h, time 7 day
[43] = Aqueous solubility of compound at pH 7.4; assay type: physicochemical; details: aqueous solution
[44] = Oral bioavailability in Sprague-Dawley rat at 10 mg/kg measured after 8 hrs by LC-MS/MS analysis; assay type: ADME, organism-based; details: in vivo
[45] = Aqueous solubility of compound at pH 2.0; assay type: physicochemical; details: aqueous solution
[46] = AUC (0 to t) in Sprague-Dawley rat at 2 mg/kg, iv measured after 8 hrs by LC-MS/MS analysis; assay type: ADME, organism-based; details: in vivo
[47] = Toxicity in male C57BL/6J mouse assessed as catalepsy by measuring extrapyramidal symptoms at 3 mg/kg, ip measured after 30 to 60 mins by bar test; assay type: organism-based; details: in vivo, time 30-60 min

Structure (SMILES): O=S(=O)(NC[C@@H]1CCCN1)c1ccc(Cl)s1
- EC50 [1]: > 10000 nM
- EC50 [2]: > 10000 nM

Structure (SMILES): O=S(=O)(NC[C@@H]1CCCN1)c1ccc2ccccc2c1
- EC50 [1]: 55 nM

Structure (SMILES): COc1ccc2c(c1OC)C(=O)OC2Nc1ccccn1 (stereo not given)
- EC50 [2]: 161 nM

Structure (SMILES): O=S(=O)(NC[C@@H]1CCCN1)c1cccc(C(F)(F)F)c1
- EC50 [1]: > 10000 nM
- EC50 [2]: > 10000 nM

Structure (SMILES): N#Cc1ccc(S(=O)(=O)NC[C@@H]2CCCN2)cc1
- EC50 [1]: > 10000 nM
- EC50 [2]: > 10000 nM

Structure (SMILES): O=S(=O)(NC[C@@H]1CCCN1)c1ccc2[nH]cnc2c1
- EC50 [1]: 131 nM
- EC50 [2]: 47.2 nM

Structure (SMILES): COc1cccc(S(=O)(=O)NC[C@@H]2CCCN2)c1.Cl
- Activity [3]: Non-toxic
- Cmax [4]: 746 ng/mL
- Activity [5]: Non-toxic
- half-life [6]: 126 min
- Activity [7]: Non-toxic
- Activity (Mus musculus [8]): 3917.8 cm
- AUC(0-inf) [9]: 240 ng·h/mL
- Activity [10]: Non-toxic
- Activity [11]: Non-toxic
- Ratio EC50 [12]: 3.5
- Activity [13]: Non-toxic
- Activity [14]: Non-toxic
- Tmax [15]: 25.2 min
- Activity [16]: Non-toxic
- Cmax [17]: 63.7 ng/mL
- Activity [18]: Non-toxic
- Activity [19]: Non-toxic
- Activity [20]: Non-toxic
- Activity [21]: Non-toxic
- Activity [22]: Non-toxic
- AUC(0-inf) [23]: 356 ng·h/mL
- Activity [24]: Non-toxic
- Activity [25]: Non-toxic
- Activity [26]: Non-toxic
- Tmax [27]: 1.8 min
- microsomal CLint [28]: 11 µL/min/mg
- AUC(0-t) at 8 h [29]: 229 ng·h/mL
- clearance [30]: 94.1 mL/min/kg
- Activity [31]: Non-toxic
- solubility [32]: 65.7 mg/mL
- Activity [33]: Non-toxic
- Activity [34]: Non-toxic
- EC50 [1]: 14.8 nM
- Activity_index (Mus musculus [35]): 0.48
- half-life [36]: 21 min
- Activity [37]: Non-toxic
- half-life [38]: 91.8 min
- EC50 [2]: 6.1 nM
- Activity [39]: Non-toxic
- Activity (Mus musculus [40]): Dose-dependent-effect
- Activity [41]: Non-toxic
- Activity [42]: Non-toxic
- solubility [43]: 43.3 mg/mL
- bioavailability [44]: 13.4%
- solubility [45]: 96.2 mg/mL
- AUC(0-t) at 8 h [46]: 355 ng·h/mL

Structure (SMILES): O=S(=O)(NC[C@@H]1CCCN1)c1ccccc1Cl
- EC50 [1]: 63.2 nM

Structure (SMILES): O=C(CCCN1CCC(O)(c2ccc(Cl)cc2)CC1)c1ccc(F)cc1 [HALOPERIDOL]
- Activity [47]: Toxic

Structure (SMILES): O=S(=O)(NC[C@@H]1CCCN1)c1cccc(Br)c1
- EC50 [1]: > 10000 nM
- EC50 [2]: > 10000 nM
